In article PMC10065799, “High-throughput profiling of sequence recognition by tyrosine kinases and SH2 domains using bacterial peptide display” (eLife, 2023):

Molecular target: c-Src kinase domain (Homo sapiens, UniProt P12931)
Test: pTyr-Var library bacterial peptide display kinase screen (enrichment scores)
Assay type: biochemical
Conditions: pTyr-Var library screen with c-Src; sheet "Src substrates": annotated Src substrate sites, 11-residue peptide SITE_+/-5_AA; mean

Sequence	Enrichment score (mean)
YDDGKYVYVVT	1.305

Same assay, conditions: sheet "Src"; effect of the variant peptide relative to its reference peptide in the pTyr-Var library screen

Sequence	Screen
AHAGEYGAVAL [HBA1_Y25_E28V]	2.935
ARSHIYTLASC [MEFV_Y741_F743L]	0.6764
AVRFIYTIDGS [DCX_Y105_G100A_YF]	0.6298
CVRTIYTIDGS [DCLK2_Y124_G119C]	0.3247
EGWQVYRLGTR [MISP_Y95_A99T]	-0.2875
FAFQLYDLDPD [CHP2_Y123_R127P_YF]	0.6897
GKSFIYAAFHA [KCNT1_Y563_T562I]	-0.6339
HISGVYKLPPD [ANGPTL7_Y145_R140H]	1.474
IGEVVYQRAAM [GRIN2A_Y502_V506A]	-0.3302
LITTLYIDFLG [KCNQ1_Y267_G269D]	-1.548
NACGLYHTMNG [GATA5_Y216_K218T]	2.558
PAVGIYNGNIN [CDCP1_Y707_D709G]	0.5447
RDSQIYAVDFE [MRPS34_Y34_L33I_YF]	2.537
RGDTVYTVNCM [KBTBD13_Y404_R408C]	-0.9987
RNDRVYQPLRD [CD3D_Y149_Q147R]	-1.537
RPIEVYLCPEE [E2F3_Y349_G344R]	1.834
RTVDVYFGPQM [KIRREL3_Y332_R336Q]	1.347
VDGFVYKLHPS [GCK_Y413_S411F]	-2.399

Same assay, conditions: sheet "Src"; variant peptide versus its reference peptide in the pTyr-Var library screen

Sequence	Screen
ATRDVYNPFET [SCAMP3_Y41_L38R]	-1.143
ELTSVYGSRAR [SENP1_Y349_D350G]	0.9781
MSRDVYSIDFF [NTRK2_Y702_T704I_YF]	1.303
PFRFIYMAVQH [PTPN11_Y515_Q510P_YF]	-0.7023
PLDGEYLTLQI [TP53_Y327_F328L]	-1.75
PRRRFYVVACD [RNASE3_Y134_G130R]	-1.377
QAEELYFGKMG [YES1_Y159_W158L]	2.237
QITQVYGFFHE [PPP2CA_Y127_D131H_YF]	0.1908
STEAIYWRFSK [SH3PXD2B_Y42_R43W_YF]	2.709

Molecular target: T1, c-Abl kinase domain (Mus musculus, UniProt P00520)
T1 sequence (P00520 242-493 limits assumed): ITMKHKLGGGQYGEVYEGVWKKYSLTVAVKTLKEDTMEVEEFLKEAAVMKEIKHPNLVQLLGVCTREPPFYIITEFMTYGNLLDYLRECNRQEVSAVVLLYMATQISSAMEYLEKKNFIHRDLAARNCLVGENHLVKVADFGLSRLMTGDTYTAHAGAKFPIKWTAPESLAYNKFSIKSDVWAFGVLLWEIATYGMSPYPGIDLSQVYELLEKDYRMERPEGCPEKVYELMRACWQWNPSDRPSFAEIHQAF
Test: as above
Assay type: biochemical
Conditions: fig5-data2, sheet "Abl"; Screen for the variant/reference peptide pair, pTyr-Var library

Screen	Sequence
-1.088	CEAMEYPESKQ [BTK_Y511_L512P]
0.3032	CGTPDYIAREI [PRKCG_Y521_P524R]
0.964	CGTPEYRAPEI [PRKACA_Y205_L206R]
0.9945	CKLVDYDSARH [BIN1_Y150_R145C]
-0.1463	DQVEQYNKELE [LMNA_Y259_K260N]
-1.083	DTLASYLDKVR [KRT12_Y139_R135T]
0.4752	ECIEFYELDKK [PMM2_Y145_R141C]
0.9369	EDKSIYRRGAC [PRKCI_Y125_R130C]
2.357	EKKKFYDAKIE [CASP5_Y104_T106A_YF]
-1.016	FFRNVYHLASV [RBL1_Y796_K794N_YF]
0.3767	FSGKAYADEEQ [CRIM1_Y826_R831Q]
0.6619	GGPAEYLRRAS [PKLR_Y38_G37E]
0.04202	IMITGYLLLFR [INSR_Y87_D86G]
0.592	LDPDSYNKFEN [FOXC1_Y159_M161K]
-0.9512	LRAGVYREKDQ [DNM2_Y626_P627R]
-1.886	LTQRTYMLENA [GPAA1_Y49_S51L]
0.6452	NDPMEYAKQHG [ASS1_Y163_L160P]
0.7292	NFGTNYRVGSS [CPO_Y278_K273N_YF]
-0.6179	PQIVKYRPDCI [LDHB_Y128_S129R]
1.067	QDEPTYARSSK [PEAK1_Y616_H611Q]

Same assay, conditions: sheet "Abl"; effect of variant peptide relative to its reference peptide in pTyr-Var library screen (enrichment)

Screen	Sequence
3.612	APRKVYDTQDD [ZFPL1_Y215_R218Q]
1.107	CTTIRYNFMCN [TP53_Y234_H233R_YF]
1.685	EKGEEYGGGGG [TUBA1A_Y451_E447K]
-1.807	ISHVAYLVLGK [TRRAP_Y892_R893L]
-0.03774	KDPPDYKFQPR [SOX9_Y172_H169P_YF]
3.465	QFFQGYFNNNF [ZNF236_Y644_S643G]
